As a reminder, the inhibition is the relative decrease from the control value, in per cent.

The values that follow come from PMC4854315, “Discovery of a novel allosteric inhibitor-binding site in ERK5: comparison with the canonical kinase hinge ATP-binding site” (Acta Crystallographica. Section D, Structural Biology, 2016).

Holding throughout (assay): Z'-LYTE kinase panel
What all share (assay type): biochemical

For one experiment, the target named is T1, KIT (Homo sapiens, UniProt P10721).
T1 construct: purchased ThermoFisher (SelectScreen, Z'-LYTE)
T1 sequence (P10721 26-976): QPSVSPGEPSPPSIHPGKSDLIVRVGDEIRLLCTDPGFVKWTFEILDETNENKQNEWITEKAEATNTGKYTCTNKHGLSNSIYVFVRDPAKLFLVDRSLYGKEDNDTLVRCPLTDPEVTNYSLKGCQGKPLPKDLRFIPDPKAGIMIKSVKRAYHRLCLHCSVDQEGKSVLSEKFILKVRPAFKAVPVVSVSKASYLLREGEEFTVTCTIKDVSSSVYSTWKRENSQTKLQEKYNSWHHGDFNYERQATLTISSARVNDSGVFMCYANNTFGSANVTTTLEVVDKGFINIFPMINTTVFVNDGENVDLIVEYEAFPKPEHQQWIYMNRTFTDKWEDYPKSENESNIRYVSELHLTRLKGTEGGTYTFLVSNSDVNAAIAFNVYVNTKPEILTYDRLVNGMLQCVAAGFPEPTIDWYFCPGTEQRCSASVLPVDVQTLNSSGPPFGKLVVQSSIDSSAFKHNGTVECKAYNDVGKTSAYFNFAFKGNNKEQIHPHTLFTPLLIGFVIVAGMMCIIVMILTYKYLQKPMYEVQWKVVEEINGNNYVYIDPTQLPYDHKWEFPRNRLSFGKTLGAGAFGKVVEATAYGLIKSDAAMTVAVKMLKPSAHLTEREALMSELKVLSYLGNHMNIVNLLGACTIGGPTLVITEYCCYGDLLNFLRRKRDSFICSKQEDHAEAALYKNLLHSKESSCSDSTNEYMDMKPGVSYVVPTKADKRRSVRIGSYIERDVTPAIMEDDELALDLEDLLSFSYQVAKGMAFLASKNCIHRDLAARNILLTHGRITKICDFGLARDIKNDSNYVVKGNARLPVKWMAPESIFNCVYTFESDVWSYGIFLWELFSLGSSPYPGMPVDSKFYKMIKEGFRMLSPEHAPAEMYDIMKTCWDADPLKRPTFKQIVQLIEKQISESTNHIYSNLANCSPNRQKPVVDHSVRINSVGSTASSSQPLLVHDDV
The essentials:
(§1)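 Each compound was added at 10 µM, kinase activity was then measured via the standard Z′-LYTE assay, and percentage inhibition was calculated; 225 kinases were covered.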

Another experiment deals with T2, FRAP1 (mTOR) (Homo sapiens, UniProt P42345).
T2 construct: purchased ThermoFisher (SelectScreen, Z'-LYTE)
Summed up: as §1

The target of another experiment is T3, ROS1 (Homo sapiens, UniProt P08922).
T3 construct: purchased ThermoFisher (SelectScreen, Z'-LYTE)
T3 sequence (P08922 28-2347): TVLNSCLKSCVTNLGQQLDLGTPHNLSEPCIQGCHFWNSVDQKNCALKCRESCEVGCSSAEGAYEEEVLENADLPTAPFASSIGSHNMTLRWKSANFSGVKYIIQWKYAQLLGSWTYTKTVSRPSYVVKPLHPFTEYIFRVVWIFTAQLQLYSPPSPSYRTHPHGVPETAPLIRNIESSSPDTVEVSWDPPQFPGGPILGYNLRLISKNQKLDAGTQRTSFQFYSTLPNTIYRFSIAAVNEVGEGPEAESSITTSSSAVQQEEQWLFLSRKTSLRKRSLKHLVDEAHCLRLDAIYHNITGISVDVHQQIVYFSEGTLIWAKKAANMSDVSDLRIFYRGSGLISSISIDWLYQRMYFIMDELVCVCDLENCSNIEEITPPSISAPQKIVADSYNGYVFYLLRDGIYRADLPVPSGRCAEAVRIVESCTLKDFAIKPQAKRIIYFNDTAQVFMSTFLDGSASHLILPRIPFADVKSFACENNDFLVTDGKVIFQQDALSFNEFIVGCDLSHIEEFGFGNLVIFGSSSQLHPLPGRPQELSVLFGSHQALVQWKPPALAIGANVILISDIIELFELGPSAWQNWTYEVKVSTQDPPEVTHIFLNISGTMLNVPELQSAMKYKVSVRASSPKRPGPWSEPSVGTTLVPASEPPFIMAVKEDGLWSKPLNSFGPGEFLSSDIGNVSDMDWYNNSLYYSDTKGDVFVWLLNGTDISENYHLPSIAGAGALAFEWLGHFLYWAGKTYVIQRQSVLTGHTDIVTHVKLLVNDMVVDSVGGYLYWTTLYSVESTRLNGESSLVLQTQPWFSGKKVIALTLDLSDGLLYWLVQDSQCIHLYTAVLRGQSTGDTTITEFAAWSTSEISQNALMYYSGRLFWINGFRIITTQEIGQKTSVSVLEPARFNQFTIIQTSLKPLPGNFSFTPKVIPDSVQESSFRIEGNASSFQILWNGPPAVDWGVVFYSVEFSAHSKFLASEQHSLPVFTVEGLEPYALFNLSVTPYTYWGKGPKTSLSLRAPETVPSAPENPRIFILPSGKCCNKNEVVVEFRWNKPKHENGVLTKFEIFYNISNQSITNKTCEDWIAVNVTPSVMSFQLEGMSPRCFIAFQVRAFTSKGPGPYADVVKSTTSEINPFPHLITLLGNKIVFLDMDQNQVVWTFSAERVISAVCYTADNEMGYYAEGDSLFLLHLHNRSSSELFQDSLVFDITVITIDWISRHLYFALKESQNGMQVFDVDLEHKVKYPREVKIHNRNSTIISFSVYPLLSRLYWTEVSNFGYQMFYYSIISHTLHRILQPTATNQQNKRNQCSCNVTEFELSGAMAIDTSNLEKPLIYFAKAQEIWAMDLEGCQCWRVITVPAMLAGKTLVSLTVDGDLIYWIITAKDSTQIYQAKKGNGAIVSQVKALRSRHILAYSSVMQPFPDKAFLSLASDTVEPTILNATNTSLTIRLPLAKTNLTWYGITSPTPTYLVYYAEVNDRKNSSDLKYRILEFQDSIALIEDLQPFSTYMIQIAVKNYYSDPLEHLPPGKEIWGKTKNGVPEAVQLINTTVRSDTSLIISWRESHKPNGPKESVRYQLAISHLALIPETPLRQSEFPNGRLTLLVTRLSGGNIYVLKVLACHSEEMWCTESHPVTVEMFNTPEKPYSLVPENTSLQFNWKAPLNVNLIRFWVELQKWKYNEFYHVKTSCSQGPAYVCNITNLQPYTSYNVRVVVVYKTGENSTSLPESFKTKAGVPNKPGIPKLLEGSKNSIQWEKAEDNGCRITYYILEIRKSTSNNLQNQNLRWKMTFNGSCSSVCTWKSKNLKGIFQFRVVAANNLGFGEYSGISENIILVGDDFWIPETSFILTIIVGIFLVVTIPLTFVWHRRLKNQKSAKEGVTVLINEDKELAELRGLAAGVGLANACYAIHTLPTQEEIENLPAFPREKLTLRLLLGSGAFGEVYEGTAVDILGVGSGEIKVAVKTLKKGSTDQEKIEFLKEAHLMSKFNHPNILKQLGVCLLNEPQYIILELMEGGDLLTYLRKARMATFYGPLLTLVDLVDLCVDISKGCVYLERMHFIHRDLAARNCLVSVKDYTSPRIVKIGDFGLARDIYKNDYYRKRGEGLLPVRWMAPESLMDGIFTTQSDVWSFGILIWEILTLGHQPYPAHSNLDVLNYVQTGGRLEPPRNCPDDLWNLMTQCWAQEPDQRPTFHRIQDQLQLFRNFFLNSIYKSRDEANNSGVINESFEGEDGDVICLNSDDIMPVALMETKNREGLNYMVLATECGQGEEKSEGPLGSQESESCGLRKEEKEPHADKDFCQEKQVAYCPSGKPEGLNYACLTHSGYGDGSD
Summed up:
as §1

For the next experiment, the target named is T4, GRK6 (Homo sapiens, UniProt P43250).
T4 construct: purchased ThermoFisher (SelectScreen, Z'-LYTE)
The essentials: as §1

The target in another experiment is T5, CDK5/p25 (Homo sapiens, UniProt Q00535).
T5 construct: purchased ThermoFisher (SelectScreen, Z'-LYTE)
T5 sequence (Q00535 whole entry): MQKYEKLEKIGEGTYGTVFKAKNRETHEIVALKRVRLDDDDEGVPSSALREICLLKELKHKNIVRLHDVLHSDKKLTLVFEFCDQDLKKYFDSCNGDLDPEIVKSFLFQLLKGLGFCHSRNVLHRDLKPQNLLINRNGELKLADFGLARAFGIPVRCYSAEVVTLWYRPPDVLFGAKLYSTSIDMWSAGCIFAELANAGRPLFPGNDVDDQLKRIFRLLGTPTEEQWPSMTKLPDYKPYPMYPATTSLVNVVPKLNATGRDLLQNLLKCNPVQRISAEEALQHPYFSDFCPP
T5 sequence (Q15078 99-307 partner limits assumed): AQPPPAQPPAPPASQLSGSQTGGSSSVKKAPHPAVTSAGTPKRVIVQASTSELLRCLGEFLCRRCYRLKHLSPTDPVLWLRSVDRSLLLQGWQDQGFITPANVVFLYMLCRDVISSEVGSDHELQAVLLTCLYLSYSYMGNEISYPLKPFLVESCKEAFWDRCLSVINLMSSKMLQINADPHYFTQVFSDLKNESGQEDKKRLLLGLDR
Summed up: as §1

A further experiment has as its target T6, PRKCH (PKC eta) (Homo sapiens, UniProt P24723).
T6 construct: purchased ThermoFisher (SelectScreen, Z'-LYTE)
Summed up:
as §1

The target of another experiment is T7, FGFR3 (Homo sapiens, UniProt P22607).
T7 construct: purchased ThermoFisher (SelectScreen, Z'-LYTE)
Summed up:
as §1

Another experiment deals with T8, PTK6 (Brk) (Homo sapiens, UniProt Q13882).
T8 construct: purchased ThermoFisher (SelectScreen, Z'-LYTE)
Summed up: as §1

In another experiment the target is T9, CLK3 (Homo sapiens, UniProt P49761).
T9 construct: purchased ThermoFisher (SelectScreen, Z'-LYTE)
T9 sequence (P49761 whole entry): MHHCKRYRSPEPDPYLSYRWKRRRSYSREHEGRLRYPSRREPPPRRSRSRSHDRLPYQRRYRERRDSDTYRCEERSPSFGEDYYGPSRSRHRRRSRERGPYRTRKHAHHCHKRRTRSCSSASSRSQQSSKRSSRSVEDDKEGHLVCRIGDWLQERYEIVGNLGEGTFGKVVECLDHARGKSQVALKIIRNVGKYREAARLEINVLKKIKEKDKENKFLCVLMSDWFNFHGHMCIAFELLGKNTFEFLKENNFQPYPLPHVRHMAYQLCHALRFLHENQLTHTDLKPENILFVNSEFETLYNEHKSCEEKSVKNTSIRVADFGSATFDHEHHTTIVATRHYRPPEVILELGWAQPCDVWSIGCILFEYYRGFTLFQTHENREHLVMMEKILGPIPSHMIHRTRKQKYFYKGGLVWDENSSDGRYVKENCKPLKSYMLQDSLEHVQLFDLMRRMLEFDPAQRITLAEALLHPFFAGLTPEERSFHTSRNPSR
The essentials:
as §1

For the next experiment, the target named is T10, FRK (PTK5) (Homo sapiens, UniProt P42685).
T10 construct: purchased ThermoFisher (SelectScreen, Z'-LYTE)
The essentials: as §1

For another experiment, the target named is T11, MARK4 (Homo sapiens, UniProt Q96L34).
T11 construct: purchased ThermoFisher (SelectScreen, Z'-LYTE)
T11 sequence (Q96L34 1-752): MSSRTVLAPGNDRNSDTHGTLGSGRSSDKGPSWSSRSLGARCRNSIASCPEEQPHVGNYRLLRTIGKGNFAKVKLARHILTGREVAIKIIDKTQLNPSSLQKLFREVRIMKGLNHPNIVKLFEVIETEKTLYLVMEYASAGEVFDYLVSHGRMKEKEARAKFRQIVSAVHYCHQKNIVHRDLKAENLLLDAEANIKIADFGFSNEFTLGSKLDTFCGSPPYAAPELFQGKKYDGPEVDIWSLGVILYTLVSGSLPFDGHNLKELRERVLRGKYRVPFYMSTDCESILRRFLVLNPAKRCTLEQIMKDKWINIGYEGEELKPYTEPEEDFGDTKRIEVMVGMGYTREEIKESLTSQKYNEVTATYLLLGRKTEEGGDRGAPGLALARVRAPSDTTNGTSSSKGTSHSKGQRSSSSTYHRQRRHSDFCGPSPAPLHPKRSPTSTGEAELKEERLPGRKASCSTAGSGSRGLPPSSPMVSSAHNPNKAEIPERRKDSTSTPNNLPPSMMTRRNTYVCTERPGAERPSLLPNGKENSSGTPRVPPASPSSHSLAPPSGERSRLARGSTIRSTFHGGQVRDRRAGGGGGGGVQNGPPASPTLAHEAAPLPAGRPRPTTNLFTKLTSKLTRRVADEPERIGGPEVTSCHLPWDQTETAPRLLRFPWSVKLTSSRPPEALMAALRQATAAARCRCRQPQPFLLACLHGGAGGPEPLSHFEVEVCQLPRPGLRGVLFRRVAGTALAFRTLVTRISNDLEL
Summed up:
as §1

The target of another experiment is T12, SYK (Homo sapiens, UniProt P43405).
T12 construct: purchased ThermoFisher (SelectScreen, Z'-LYTE)
Particulars: 10 µM compound, ATP Km app. The essentials:
as §1

The target of a further experiment is T13, MAPK9 (JNK2) (Homo sapiens, UniProt P45984).
T13 construct: purchased ThermoFisher (SelectScreen, Z'-LYTE)
Particulars: 10 µM compound; ATP 100. Summed up: as §1

The next experiment addresses T14, FLT4 (VEGFR3) (Homo sapiens, UniProt P35916).
T14 construct: purchased ThermoFisher (SelectScreen, Z'-LYTE)
As to conditions: 10 µM compound, ATP Km app. Summed up: as §1

The target of a further experiment is T15, PRKX (Homo sapiens, UniProt P51817).
T15 construct: purchased ThermoFisher (SelectScreen, Z'-LYTE)
T15 sequence (P51817 1-358): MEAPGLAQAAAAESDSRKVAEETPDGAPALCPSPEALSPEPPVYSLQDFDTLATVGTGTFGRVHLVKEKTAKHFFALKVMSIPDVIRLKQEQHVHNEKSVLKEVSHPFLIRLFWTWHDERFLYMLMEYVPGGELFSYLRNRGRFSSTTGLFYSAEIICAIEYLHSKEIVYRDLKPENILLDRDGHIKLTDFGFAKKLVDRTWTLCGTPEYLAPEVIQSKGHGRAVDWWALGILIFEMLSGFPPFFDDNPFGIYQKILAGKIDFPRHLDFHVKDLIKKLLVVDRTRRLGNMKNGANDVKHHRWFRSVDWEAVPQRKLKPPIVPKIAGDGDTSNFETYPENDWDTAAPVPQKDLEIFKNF
The essentials: as §1

T6 sequence (P24723 whole entry): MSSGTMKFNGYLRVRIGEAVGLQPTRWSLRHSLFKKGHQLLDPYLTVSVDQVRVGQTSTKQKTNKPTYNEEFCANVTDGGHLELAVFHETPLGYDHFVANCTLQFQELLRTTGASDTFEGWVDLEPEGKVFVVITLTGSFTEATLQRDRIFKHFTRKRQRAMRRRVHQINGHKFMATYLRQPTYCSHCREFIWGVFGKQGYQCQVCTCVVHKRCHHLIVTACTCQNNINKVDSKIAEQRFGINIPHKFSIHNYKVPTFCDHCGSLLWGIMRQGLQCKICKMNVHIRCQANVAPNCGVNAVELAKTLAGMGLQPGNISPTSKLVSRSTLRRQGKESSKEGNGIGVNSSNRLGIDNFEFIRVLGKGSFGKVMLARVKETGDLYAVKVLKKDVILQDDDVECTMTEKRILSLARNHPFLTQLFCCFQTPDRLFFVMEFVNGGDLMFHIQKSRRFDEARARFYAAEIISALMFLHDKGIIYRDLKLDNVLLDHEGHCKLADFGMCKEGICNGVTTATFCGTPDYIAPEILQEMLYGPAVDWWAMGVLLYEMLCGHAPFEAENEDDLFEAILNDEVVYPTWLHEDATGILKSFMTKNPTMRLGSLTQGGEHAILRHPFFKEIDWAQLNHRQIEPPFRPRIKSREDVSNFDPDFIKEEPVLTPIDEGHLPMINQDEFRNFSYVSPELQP

As for `Cc1ncc(-c2nc(Nc3ccc(C(=O)NCCN4CCCCC4)cc3)ncc2F)n1C(C)C` [Compound 3], the inhibition at 10 µM against KIT amounted to 31%; on FRAP1 (mTOR), 44%; against ROS1, 99%; on GRK6 it was 53%; at CDK5/p25 it was 99%; at PRKCH (PKC eta) it was 54%. In addition, the inhibition at 10 µM against FGFR3 was determined as 54%; against PTK6 (Brk) it was 61%; at CLK3, 71%; against FRK (PTK5), 68%; on MARK4 it was 62%; against SYK, 90%. In addition, the inhibition at 10 µM came to 103% on MAPK9 (JNK2), 99% against FLT4 (VEGFR3) and 84% against PRKX.

Take `Cc1cc(Nc2nc(N)nn2C(=O)NC(C)C)ccc1Cl` [Compound 5]: the inhibition at 10 µM against KIT was 11%; against FRAP1 (mTOR), -12%; on ROS1 it was 57%; on GRK6, -0.556%; on CDK5/p25, 77%; against PRKCH (PKC eta) it was -18%. Also, the inhibition at 10 µM at FGFR3 was 13%; against PTK6 (Brk), 5.47%; against CLK3, 12%; on FRK (PTK5), 21%; at MARK4, 2.34%; on SYK, more than 80%. The figures for the inhibition at 10 µM at MAPK9 (JNK2), against FLT4 (VEGFR3) and against PRKX were 4.72%, more than 80% and 8.43%, respectively. Also, the “SYK % Inhibition” value on SYK (listed as SN1109056190, 10 µM) is 85%. Moreover, the “FLT4 (VEGFR3) % Inhibition” value at FLT4 (VEGFR3) (listed as SN1109056190, 10 µM) is on record as 86%.

For “XMD8-92 [Compound 2, reference compound]”, at KIT (10 µM compound, ATP Km app), the “KIT % Inhibition” value is listed as -5.51%. Moreover, the “FRAP1 (mTOR) % Inhibition” value at FRAP1 (mTOR) (10 µM compound, ATP Km app) was -15%. The “ROS1 % Inhibition” value on ROS1 (10 µM compound, ATP Km app) turned out to be 69%. Further, on GRK6 (10 µM compound, ATP Km app), the “GRK6 % Inhibition” value came to 1.47%. Also, at CDK5/p25 (10 µM compound, ATP Km app), the “CDK5/p25 % Inhibition” value is reported as 38%. For the same molecule, the “PRKCH (PKC eta) % Inhibition” value on PRKCH (PKC eta) (10 µM compound, ATP Km app) came to 41%. Further, the “FGFR3 % Inhibition” value at FGFR3 (10 µM compound, ATP Km app) is on record as 9%. For the same molecule, on PTK6 (Brk) (10 µM compound, ATP Km app), the “PTK6 (Brk) % Inhibition” value is 14%. In addition, the “CLK3 % Inhibition” value on CLK3 (10 µM compound, ATP Km app) is reported as 5.55%. Also, the “FRK (PTK5) % Inhibition” value at FRK (PTK5) (10 µM compound, ATP Km app) is recorded as 20%. For the same molecule, on MARK4 (10 µM compound, ATP Km app), the “MARK4 % Inhibition” value is on record as 37%. In addition, the “SYK % Inhibition” value on SYK came out at 22%. For the same molecule, the “MAPK9 (JNK2) % Inhibition” value at MAPK9 (JNK2) was found to be 5.42%. Also, the “FLT4 (VEGFR3) % Inhibition” value at FLT4 (VEGFR3) is on record as 4%. Also, the “PRKX % Inhibition” value at PRKX (10 µM compound, ATP Km app) was 25%.
